Data published in patent US9248145B2, “Two alkylresorcinol synthase genes from sorghum; cloning, expression, transformation and characterization” (The United States of America, as represented by The …, priority 2010, dated 2016).
One block for each compound: values may come before it.

Assays:
recombinant ARS1 [1] = molecular target: T1, recombinant ARS1 (Sorghum bicolor, UniProt C5Y4Z2); test: Steady-state kinetics with [2-14C]-malonyl-CoA, TLC/phosphor imaging; type: biochemical; settings: for Km: same conditions as kcat; for kcat: starter kinetics: 40 μM [2-14C]-malonyl-CoA, 1.43-10 μM starter, malonyl-CoA kinetics: 25 μM palmitoleoyl-CoA starter, pH 7.0, 30° C., 5 min
Description: (§1) Enzyme assays, performed in triplicate, for starter unit CoA kinetics contained 100 mM potassium phosphate buffer (pH 7.0), 40 μM [2-^14C]-malonyl-CoA (50-60 mCi/mmol, 1.85-2.22 GBq/mmol; American Radiolabeled Chemicals, Inc., St. Louis, Mo.), 1.43-10 μM starter unit (e.g., palmitoyl-CoA), and 0.75 μg protein in a 200 μL volume at 30° C. for 5 min. Enzyme assays for malonyl-CoA kinetics contained 100 mM potassium phosphate buffer (pH 7.0), 1.66-25 μM [2-^14C]-malonyl-CoA, 25 μM starter unit (palmitoleoyl-CoA), and 0.75 μg protein in a 200 μL volume at 30° C. for 5 min. Reactions were quenched by addition of 10 μL of 20% HCl. The products were extracted as described above, and were separated by thin layer chromatography (silica gel 60 F254; chloroform:ethyl acetate=70:30; 15 min). Product detection and formation was quantified through the use of the Cyclone storage phosphor system and OptiQuant 3.0 image analysis software (PerkinElmer, Wellesley, Mass.). Data were fit to the Michaelis-Menten equation using the Sigma Plot 9.01 enzyme kinetics module (Systat, Inc., San Jose, Calif.).

recombinant ARS2 [2] = molecular target: T2, recombinant ARS2 (Sorghum bicolor, UniProt C5YRS1); test: as above; type: biochemical; settings: for Km: same conditions as kcat; for kcat: starter kinetics: 40 μM [2-14C]-malonyl-CoA, 1.43-10 μM starter, malonyl-CoA kinetics: 25 μM palmitoleoyl-CoA starter, pH 7.0, 30° C., 5 min
Description: as §1

recombinant ARS2 [3] = molecular target: T2, recombinant ARS2; test: Polyketide synthase enzyme assay, 5-alkylresorcinol formation (GC-MS, m/z 268); type: biochemical; settings: for activity as starter unit (in words): malonyl-CoA extender
Description: (§2) Reactions were quenched by addition of 10 μL of 20% HCl, and products were extracted by phase partitioning with 1 ml of ethyl acetate. The organic phase (upper layer) obtained by centrifugation at ˜14,000×g for 1 min was transferred to a fresh tube, dried under vacuum, and subsequently analyzed by GC-EI-MS as a trimethysilyl (TMS) derivative.
(§3) Reactions were quenched by addition of 10 μL of 20% HCl. The products were extracted as described above, and were separated by thin layer chromatography (silica gel 60 F254; chloroform:ethyl acetate=70:30; 15 min). Product detection and formation was quantified through the use of the Cyclone storage phosphor system and OptiQuant 3.0 image analysis software (PerkinElmer, Wellesley, Mass.).
(§4) Recombinant enzyme studies were next performed to examine substrate preferences for the 3 putative type III PKS enzymes maximally expressed in root hairs. […] Acyl-CoAs varying in length and degree of saturation were tested in enzymatic assays with all three recombinant enzymes, as well as the non-linear starter units benzoyl-CoA, isovaleryl-CoA, and isobutryl-CoA used by several other plant type III PKS enzymes (Austin and Noel, supra).

recombinant Os05g12180 = test: Polyketide synthase enzyme assay, alkylresorcinol synthase activity; type: biochemical, Oryza sativa
Description: (§5) Polyketide synthase enzyme assays, performed in triplicate, contained 100 mM potassium phosphate buffer (pH 7.0), 40 μM malonyl-CoA, 25 μM starter unit (e.g., palmitoyl-CoA), and 2 μg protein in a 200 μL volume at 30° C. for 15 min. […] Reactions were quenched by addition of 10 μL of 20% HCl, and products were extracted by phase partitioning with 1 ml of ethyl acetate. The organic phase (upper layer) obtained by centrifugation at ˜14,000×g for 1 min was transferred to a fresh tube, dried under vacuum, and subsequently analyzed by GC-EI-MS as a trimethysilyl (TMS) derivative. Product formation was quantified using selective ion monitoring at m/z 268, a fragment ion common to all alkylresorcinols, generated by benzylic cleavage of the alkyl side chain. The identification of the m/z 268 [(5-methyl-1,3 phenylene)bis(oxy)bis(TMS)]^+ base ion and the parent [M]^+ provide confirmation of the 5-alkylresorcinolic structure as well as the length and degree of saturation of the associated side chain (Occolowitz, 1964. Anal. Chem. 36:2177-2181; Suzuki et al. 1996, supra; Suzuki at al. 2003, supra).
as §1
(§6) To explore this possibility, the predicted open reading frames encoded by O. sativa (cv. Nipponbare) LOC_Os05g12180, LOC_Os10g08620, and LOC_Os10g07040, were also expressed in E. coli as N-terminal polyhistidine fusions, and tested for alkylresorcinol synthase activity with the same panel of fatty acyl-CoA substrates used for recombinant ARS1 and ARS2 enzymatic studies (FIG. 4).

recombinant Os10g07040 = test: as above; type: biochemical, Oryza sativa
Description: as §5, §1, §6

recombinant Os10g08620 = test: as above; type: biochemical, Oryza sativa
Description: as §5, §1, §6

recombinant ARS1 [4] = molecular target: T1, recombinant ARS1; test: Polyketide synthase enzyme assay, 5-alkylresorcinol formation (GC-MS, m/z 268); type: biochemical; settings: for activity as starter unit (in words): malonyl-CoA extender
Description: as §2, §3, §4

[5] = 25 μM starter unit, 40 μM malonyl-CoA, pH 7.0, 30° C., 15 min

T2 sequence (C5YRS1 entry or part of it): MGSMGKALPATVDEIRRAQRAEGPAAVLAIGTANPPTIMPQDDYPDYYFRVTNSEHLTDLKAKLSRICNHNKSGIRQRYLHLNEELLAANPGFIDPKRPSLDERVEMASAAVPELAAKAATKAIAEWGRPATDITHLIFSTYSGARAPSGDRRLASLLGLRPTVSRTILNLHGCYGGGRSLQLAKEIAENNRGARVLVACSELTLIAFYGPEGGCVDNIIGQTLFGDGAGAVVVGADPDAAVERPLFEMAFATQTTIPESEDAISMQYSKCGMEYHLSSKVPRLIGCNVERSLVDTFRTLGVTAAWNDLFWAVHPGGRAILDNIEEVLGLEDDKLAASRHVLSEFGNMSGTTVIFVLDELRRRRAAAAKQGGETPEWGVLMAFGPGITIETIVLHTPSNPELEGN
T1 sequence (C5Y4Z2 entry or part of it): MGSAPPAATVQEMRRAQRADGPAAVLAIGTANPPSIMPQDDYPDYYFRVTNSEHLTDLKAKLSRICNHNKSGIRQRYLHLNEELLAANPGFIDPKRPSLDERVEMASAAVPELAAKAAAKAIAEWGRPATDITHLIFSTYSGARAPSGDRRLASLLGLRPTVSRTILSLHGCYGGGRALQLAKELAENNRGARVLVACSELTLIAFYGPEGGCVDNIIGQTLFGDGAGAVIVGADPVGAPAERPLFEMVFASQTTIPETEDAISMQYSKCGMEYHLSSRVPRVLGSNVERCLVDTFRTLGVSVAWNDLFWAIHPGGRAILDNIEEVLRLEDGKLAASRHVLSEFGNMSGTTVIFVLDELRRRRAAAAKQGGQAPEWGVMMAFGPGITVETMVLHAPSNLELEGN

Km (recombinant ARS1 [1]): 2.3 µM
kcat (recombinant ARS1 [1]): 0.0132 s⁻¹
Km (recombinant ARS2 [2]): 4.1 µM
kcat (recombinant ARS2 [2]): 0.0183 s⁻¹
Compound: CCCCCCCCCCCCCCCC(=O)SCCNC(=O)CCNC(=O)[C@H](O)C(C)(C)COP(=O)(O)OP(=O)(O)OC[C@H]1O[C@@H](n2cnc3c(N)ncnc32)[C@H](O)[C@@H]1OP(=O)(O)O [C16:0-CoA, palmitoyl-CoA]

maximal 5-alkylresorcinol-forming activity (recombinant ARS2 [3]; [5]): 60.1 pkat mg^1
Km (recombinant ARS1 [1]): 2.3 µM
kcat (recombinant ARS1 [1]): 0.0183 s⁻¹
Km (recombinant ARS2 [2]): 3.6 µM
kcat (recombinant ARS2 [2]): 0.0233 s⁻¹
Compound: CCCCCC/C=C\CCCCCCCC(=O)SCCNC(=O)CCNC(=O)[C@H](O)C(C)(C)COP(=O)(O)OP(=O)(O)OC[C@H]1O[C@@H](n2cnc3c(N)ncnc32)[C@H](O)[C@@H]1OP(=O)(O)O [C16:1-CoA, palmitoleoyl-CoA]

Km (recombinant ARS1 [1]): 5.2 µM
kcat (recombinant ARS1 [1]): 0.0148 s⁻¹
Km (recombinant ARS2 [2]): 5.8 µM
kcat (recombinant ARS2 [2]): 0.0123 s⁻¹
Compound: CC(C)(COP(=O)(O)OP(=O)(O)OC[C@H]1O[C@@H](n2cnc3c(N)ncnc32)[C@H](O)[C@@H]1OP(=O)(O)O)[C@@H](O)C(=O)NCCC(=O)NCCSC(=O)CC(=O)O [Malonyl-CoA, malonyl-CoA]

activity as starter unit (in words) (recombinant Os05g12180): No activity
activity as starter unit (in words) (recombinant Os10g07040): No activity
activity as starter unit (in words) (recombinant Os10g08620): No activity
Compound: CCCCC/C=C\C/C=C\C/C=C\C/C=C\CCCC(=O)SCCNC(=O)CCNC(=O)[C@H](O)C(C)(C)COP(=O)(O)OP(=O)(O)OC[C@H]1O[C@@H](n2cnc3c(N)ncnc32)[C@H](O)[C@@H]1OP(=O)(O)O [arachidonoyl-CoA]

activity as starter unit (in words) (recombinant ARS1 [4]): No activity
activity as starter unit (in words) (recombinant ARS2 [3]): No activity
Compound: CC(C)(COP(=O)(O)OP(=O)(O)OC[C@H]1O[C@@H](n2cnc3c(N)ncnc32)[C@H](O)[C@@H]1OP(=O)(O)O)[C@@H](O)C(=O)NCCC(=O)NCCSC(=O)c1ccccc1 [benzoyl-CoA]

triketide pyrone derailment product, share of the total moles product derived from the starter (recombinant ARS1 [4]): ~33%
Compound: CCCCCCCC(=O)SCCNC(=O)CCNC(=O)[C@H](O)C(C)(C)COP(=O)(O)OP(=O)(O)OC[C@H]1O[C@@H](n2cnc3c(N)ncnc32)[C@H](O)[C@@H]1OP(=O)(O)O [capryloyl-CoA]

activity as starter unit (in words) (recombinant ARS1 [4]): utilized
activity as starter unit (in words) (recombinant ARS2 [3]): utilized
Compound: C=CC/C=C\C/C=C\CCCCCCCCSCCNC(=O)CCNC(=O)[C@H](O)C(C)(C)COP(=O)(O)OP(=O)(O)OC[C@H]1O[C@@H](n2cnc3c(N)ncnc32)[C@H](O)[C@@H]1OP(=O)(O)O [hexadecatrienyl-CoA, (9Z,12Z)-Hexadeca-9,12,15-trienyl-CoA]

triketide pyrone derailment product, share of the total moles product derived from the starter (recombinant ARS1 [4]): approximately 9%
triketide pyrone derailment product, share of the total moles product derived from the starter (recombinant ARS2 [3]): approximately 9%
activity as starter unit (in words) (recombinant Os05g12180): No activity
activity as starter unit (in words) (recombinant Os10g07040): No activity
activity as starter unit (in words) (recombinant Os10g08620): No activity
Compound: CCCCCC(=O)SCCNC(=O)CCNC(=O)[C@H](O)C(C)(C)COP(=O)(O)OP(=O)(O)OC[C@H]1O[C@@H](n2cnc3c(N)ncnc32)[C@H](O)[C@@H]1OP(=O)(O)O [hexanoyl-CoA]

activity as starter unit (in words) (recombinant ARS1 [4]): No activity
activity as starter unit (in words) (recombinant ARS2 [3]): No activity
Compound: CC(C)C(=O)SCCNC(=O)CCNC(=O)[C@H](O)C(C)(C)COP(=O)(O)OP(=O)(O)OC[C@H]1O[C@@H](n2cnc3c(N)ncnc32)[C@H](O)[C@@H]1OP(=O)(O)O [isobutyryl-CoA]

activity as starter unit (in words) (recombinant ARS1 [4]): No activity
activity as starter unit (in words) (recombinant ARS2 [3]): No activity
Compound: CC(C)CC(=O)SCCNC(=O)CCNC(=O)[C@H](O)C(C)(C)COP(=O)(O)OP(=O)(O)OC[C@H]1O[C@@H](n2cnc3c(N)ncnc32)[C@H](O)[C@@H]1OP(=O)(O)O [isovaleryl-CoA]

triketide pyrone derailment product, share of the total moles product derived from the starter (recombinant ARS1 [4]): ~15%
maximal 5-alkylresorcinol-forming activity (recombinant ARS1 [4]; [5]): 81.0 pkat mg^−1
triketide pyrone derailment product, share of the total moles product derived from the starter (recombinant ARS2 [3]): < 5%
Compound: CCCCCCCCCCCCCC(=O)SCCNC(=O)CCNC(=O)[C@H](O)C(C)(C)COP(=O)(O)OP(=O)(O)OC[C@H]1O[C@@H](n2cnc3c(N)ncnc32)[C@H](O)[C@@H]1OP(=O)(O)O [myristoyl-CoA]
